Source: PubChem BioAssay (NCI)
Several values for one entry are separate records, joined by “and”; a condition that tells them apart may be missing. Equal values may be shown once.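 Step 1: Grow cells in 96-well plates. Step 2: Expose to compound for 48 hours at 5 concentrations. Step 3: Interpolate endpoints linearly; if unreached, use highest concentration. GI50 is the concentration that inhibits growth by half. TGI is the concentration that stops growth completely.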 Where a SMILES comes first, the peptide text is derived from it. [ ]: non-standard residue; d: D form. The star is where a group is joined. ξ: configuration not given here. X6 = FC(F)(F)c1cc(NC(=S)*)cc(C(F)(F)F)c1; ξF = NC(Cc1ccccc1)C(=O)O

Columns and labels:
Experiment in all cases: NCI-60 cell line screen, 48 h
HCT-15 colon = test system: HCT-15 colon
HCC-2998 colon = test system: HCC-2998 colon
COLO 205 colon = test system: COLO 205 colon
SF-539 CNS = test system: SF-539 CNS
LOX IMVI melanoma = test system: LOX IMVI melanoma
A549 NSCLC = test system: A549 NSCLC
MOLT-4 leukemia = test system: MOLT-4 leukemia
SK-MEL-5 melanoma = test system: SK-MEL-5 melanoma
OVCAR-8 ovarian = test system: OVCAR-8 ovarian
HCT-116 colon = test system: HCT-116 colon

SMILES | GI50 (HCT-15 colon) [nM] | TGI (HCT-15 colon) | GI50 (HCC-2998 colon) [µM] | TGI (HCC-2998 colon) | TGI (COLO 205 colon) | GI50 (SF-539 CNS) [nM] | TGI (SF-539 CNS) [µM] | TGI (LOX IMVI melanoma) | GI50 (A549 NSCLC) [µM] | TGI (A549 NSCLC) [µM] | TGI (MOLT-4 leukemia) [µM] | GI50 (SK-MEL-5 melanoma) [nM] | TGI (SK-MEL-5 melanoma) | GI50 (OVCAR-8 ovarian) [µM] | TGI (OVCAR-8 ovarian) | GI50 (HCT-116 colon) [µM] | TGI (HCT-116 colon) | GI50 (COLO 205 colon) [nM] | GI50 (LOX IMVI melanoma) [nM] | GI50 (MOLT-4 leukemia) [nM]
COC(=O)[C@@H]1[C@H](O)[C@H](C)[C@H](O)[C@@](C)(O)/C=C\C=C(C)C(=O)Nc2c(C)c(OC(C)=O)c3c(c2O)C(=O)C(C)=C2OCOC(=C23)C(C)=C[C@@](C)(O)[C@H](O)[C@@H](C)[C@H]1OC(C)=O | 42500 | > 100 µM and 66.9 µM | 11.1 | > 100 µM and 66.9 µM | > 100 µM and 29 µM and 37.3 µM | > 66900 | > 100 | > 100 µM and 66.9 µM and 41.7 µM | > 66.9 | > 100 | > 100 | 20500 | > 100 µM and 66.9 µM and 38.4 µM | 42.3 | > 100 µM and 66.9 µM | 59.7 | > 100 µM and 66.9 µM | – | – | –
Nc1ccccc1SC(C[N+](=O)[O-])c1ccc2c(c1)OCO2 (configuration not stated) | – | 10.3 µM | – | 3.17 µM | 13.7 µM | – | 4.98 | 3.68 µM | – | 8.68 | 6.66 | – | 15.3 µM | – | 11 µM | – | 3.71 µM | – | – | –
COc1cc(-c2nn(-c3ccc(NC(=O)c4ccc(Cl)c(C(F)(F)F)c4)cc3)cc2-c2ccncc2)ccc1Cl | 1420 | 4.21 µM | 3.22 | > 100 µM | 4.37 µM | 1830 | 8.6 | 3.88 µM | 4.94 | > 100 | 8.06 | 1660 | 3.15 µM | 5.43 | > 100 µM | 2.81 | > 58.2 µM | 2050 | 1550 | 2630
COC(=O)[C@@H](NC(=O)CNC(=O)[C@H]1CCCN1C(=O)C(Cc1ccccc1)NC(=S)Nc1cc(C(F)(F)F)cc(C(F)(F)F)c1)C(C)C (some centres not stated) (X6-[ξF][dP]GV-OMe) | 2290 | 5.37 µM | 3.39 | 11.9 µM | 3.32 µM | 2060 | 3.94 | 5.55 µM | 3.03 | 14.4 | 6.07 | 1450 | 2.79 µM | 3.75 | 53.6 µM | 3.34 | 10.7 µM | 1870 | 2250 | 2280
C[C@]12CC[C@H](O)CC1=CC[C@@H]1C2CC[C@]2(C)C(=O)N(N)C(=O)CC12 (some centres not stated) | – | > 100 µM | – | > 100 µM | > 100 µM | – | > 100 | > 100 µM | – | > 100 | > 100 | – | > 100 µM | – | > 100 µM | – | > 100 µM | – | – | –
CC(C)C/C(CC(=O)CCC(=O)Nc1ccccc1[N+](=O)[O-])=N\NC(=O)c1cc2ccccc2cc1O | – | > 100 µM | – | > 100 µM | 69 µM | – | 82.3 | 79 µM | – | > 100 | > 100 | – | 67.5 µM | – | 95.8 µM | – | > 100 µM | – | – | –
COC1=CC(=O)c2nc(-c3ccncc3)[nH]c2C1=O | > 100000 | > 100 µM | > 100 | > 100 µM | > 100 µM | > 100000 | > 100 | > 100 µM | > 100 | > 100 | > 100 | > 100000 | > 100 µM | > 100 | > 100 µM | > 100 | > 100 µM | > 100000 | > 100000 | > 100000
